Eight molecules from patent US5112872A, “Antispasmodic agent” (Taiko Pharmaceutical Co., Ltd., priority 1989, dated 1992) can be followed below.

Like-named read-outs stand apart in the source and are kept apart here.

Data set [1] relates to strips of the ileum. Briefly: 100% inhibition of peristaltic motility of ileum strips, Pharmacological Test 1(b). The note with it: for IC100: Cavia porcellus, read-out: IC100 (dose causing 100% inhibition of the motility of the strip). Further details: species or system guinea pig (female Hartley). As to the method:
(b) Experiments on the inhibition of peristaltic motility of intestinal strips were carried out in the same manner as Experiment (a) except that guaiacol, creosol, cresol, phenol and xylenol, all of which are components of creosote, were respectively used in lieu of creosote.

A short description of data set [2]: in vivo. As to conditions: rat, po.

On to cresol, for which the “antispasmodic activity (inhibition of intestinal motility), in words” value in data set [1] is on record as “antispasmodic activity comparable to that of creosote”. Further, the “IC100 (dose causing 100% inhibition of the motility of the strip)” value in data set [1] (strips of the ileum) turned out to be 0.0001 g/mL.
The LD50 is the dose at which mortality reaches 50%. Read a high LD50 as lower toxicity. In the case of `Cc1cccc(O)c1` [m-Cresol], the 50% lethal dose (LD50) in data set [2] came to 2020 mg/kg.
`Cc1ccccc1O` [o-Cresol] came in with an LD50 in data set [2] of 1350 mg/kg.
`Cc1ccc(O)cc1` [p-Cresol] yielded an LD50 in data set [2] of 1800 mg/kg.
In the case of `COc1ccccc1O` [Guaiacol, guaiacol], the “antispasmodic activity (inhibition of intestinal motility), in words” value in data set [1] is “antispasmodic activity comparable to that of creosote”. Besides, the IC100 in data set [1] (strips of the ileum) was 100 µg/mL. The molecule also returned an LD50 in data set [2] of 725 mg/kg.
With `Oc1ccccc1` [Phenol, phenol], in data set [1], the “antispasmodic activity (inhibition of intestinal motility), in words” value was “antispasmodic activity comparable to that of creosote” and the IC100 is 100 µg/mL. This molecule showed an LD50 in data set [2] of 530 mg/kg.
Regarding xylenol, the “antispasmodic activity (inhibition of intestinal motility), in words” value in data set [1] was “antispasmodic activity comparable to that of creosote”. Moreover, the “IC100 (dose causing 100% inhibition of the motility of the strip)” value in data set [1] (strips of the ileum) is 0.0001 g/mL.
With `COc1cc(C)ccc1O` [Creosol, creosol], the “antispasmodic activity (inhibition of intestinal motility), in words” value in data set [1] is listed as “antispasmodic activity comparable to that of creosote”. Also, the IC100 in data set [1] (strips of the ileum) is 100 µg/mL.
